These results are taken from patent US7064128B2, “Preferentially substituted calcium channel blockers” (NeuroMed Technologies, Inc., priority 1998, dated 2006).

Assay type in all cases: cell-based
Test [1] deals with T1, N-type calcium channels (α1B+α2δ+β1b cDNA subunits) (Rattus norvegicus, UniProt Q02294).
T1 construct: expressed in transfected cells
The test is described as follows: Whole cell patch clamp, tonic and frequency dependent block, N-type channels in HEK 293 (Example 5). The conditions noted are these: for % Block (100 nM) 0.03 Hz: 0.03 Hz (tonic block); for % Block (100 nM) 0.2 Hz: 0.2 Hz (frequency dependent block). Here is the method:
(§1) N-type calcium channel blocking activity was assayed in human embryonic kidney cells, HEK 293, stably transfected with the rat brain N-type calcium channel subunits (α1B+α2δ+β1b cDNA subunits). Alternatively, N-type calcium channels (α1B+α2δ+β1b cDNA subunits), L-type channels (α1C+α2δ+β1b cDNA subunits) and P/Q-type channels (α1A+α2δ+β1b cDNA subunits) were transiently expressed in HEK 293 cells. Briefly, cells were cultured in Dulbecco's modified eagle medium (DMEM) supplemented with 10% fetal bovine serum, 200 U/ml penicillin and 0.2 mg/ml streptomycin at 37° C. with 5% CO2. At 85% confluency cells were split with 0.25% trypsin/1 mM EDTA and plated at 10% confluency on glass coverslips. At 12 hours the medium was replaced and the cells transiently transfected using a standard calcium phosphate protocol and the appropriate calcium channel cDNAs. Fresh DMEM was supplied and the cells transferred to 28° C./5% CO2. Cells were incubated for 1 to 2 days to whole cell recording.
(§2) Whole cell patch clamp experiments were performed using an Axopatch 200B amplifier (Axon Instruments, Burlingame, Calif.) linked to a personal computer equipped with pCLAMP software. The external and internal recording solutions contained, respectively, 5 mM BaCl2, 1 mM MgCl2, 10 mM HEPES, 40 mM TEACl, 10 mM glucose, 87.5 mM CsCl (pH 7.2) and 108 mM CsMS, 4 mM MgCl2, 9 mM EGTA, 9 mM HEPES (pH 7.2). Currents were typically elicited from a holding potential of −80 mV to +10 mV using Clampex software (Axon Instruments). Typically, currents were first elicited with low frequency stimulation (0.03 Hz) and allowed to stabilize prior to application of the compounds. The compounds were then applied during the low frequency pulse trains for two to three minutes to assess tonic block, and subsequently the pulse frequency was increased to 0.2 Hz to assess frequency dependent block. Data were analyzed using Clampfit (Axon Instruments) and SigmaPlot 4.0 (Jandel Scientific).

For test [2], the target named is T2, L-type channels (α1C+α2δ+β1b cDNA subunits) (UniProt P22002).
T2 construct: other: α1C (L-type), 100 nM, 0.03 Hz; other: α1C (L-type), 100 nM, 0.2 Hz; other: α1C (L-type), 0.03 Hz; other: α1C (L-type), 0.2 Hz
Description: Whole cell patch clamp, tonic and frequency dependent block, L-type channels in HEK 293 (Example 5). Here is the method: as §1, §2
(§3) Tables 2 and 3 show the results of similar experiments conducted with P/Q-type and L-type channels expressed in HEK 293 cells.

Test [3] addresses P/Q-type channels (α1A+α2δ+β1b cDNA subunits) (UniProt P54282). The test is described as follows: Whole cell patch clamp, tonic and frequency dependent block, P/Q-type channels in HEK 293 (Example 5). Here is the method:
as §1, §2, §3
A general note: Patch clamp records ionic current or voltage across a cell membrane.

Setting [4] is: Table 4 summary, 0.2 Hz, N-type, unit not given in Table 4 (μM in Table 1), read-out: N (IC50 values).
Setting [5] is: α1B (N-type), 0.03 Hz, read-out: Estimated IC50 (μM) 0.03 Hz.
Setting [6] is: α1B (N-type), 0.2 Hz, read-out: Estimated IC50 (μM) 0.2 Hz.
Where [7] appears, read: Table 4 summary, 0.2 Hz, L-type, unit not given in Table 4 (μM in Table 3), read-out: L (IC50 values).
Setting [8] is: α1C (L-type), 0.03 Hz, read-out: Estimated IC50 (μM) 0.03 Hz.
Where [9] appears, read: α1C (L-type), 0.2 Hz, read-out: Estimated IC50 (μM) 0.2 Hz.
[10] abbreviates: Table 4 summary, 0.2 Hz, P/Q-type, unit not given in Table 4 (μM in Table 2), read-out: P/Q (IC50 values).
The mark [11] stands for this setting: α1A (P/Q-type), 0.03 Hz, read-out: Estimated IC50 (μM) 0.03 Hz.
The mark [12] stands for this setting: α1A (P/Q-type), 0.2 Hz, read-out: Estimated IC50 (μM) 0.2 Hz.

Where two headings read alike, the source gives them in different places.

T1 sequence (Q02294 whole entry): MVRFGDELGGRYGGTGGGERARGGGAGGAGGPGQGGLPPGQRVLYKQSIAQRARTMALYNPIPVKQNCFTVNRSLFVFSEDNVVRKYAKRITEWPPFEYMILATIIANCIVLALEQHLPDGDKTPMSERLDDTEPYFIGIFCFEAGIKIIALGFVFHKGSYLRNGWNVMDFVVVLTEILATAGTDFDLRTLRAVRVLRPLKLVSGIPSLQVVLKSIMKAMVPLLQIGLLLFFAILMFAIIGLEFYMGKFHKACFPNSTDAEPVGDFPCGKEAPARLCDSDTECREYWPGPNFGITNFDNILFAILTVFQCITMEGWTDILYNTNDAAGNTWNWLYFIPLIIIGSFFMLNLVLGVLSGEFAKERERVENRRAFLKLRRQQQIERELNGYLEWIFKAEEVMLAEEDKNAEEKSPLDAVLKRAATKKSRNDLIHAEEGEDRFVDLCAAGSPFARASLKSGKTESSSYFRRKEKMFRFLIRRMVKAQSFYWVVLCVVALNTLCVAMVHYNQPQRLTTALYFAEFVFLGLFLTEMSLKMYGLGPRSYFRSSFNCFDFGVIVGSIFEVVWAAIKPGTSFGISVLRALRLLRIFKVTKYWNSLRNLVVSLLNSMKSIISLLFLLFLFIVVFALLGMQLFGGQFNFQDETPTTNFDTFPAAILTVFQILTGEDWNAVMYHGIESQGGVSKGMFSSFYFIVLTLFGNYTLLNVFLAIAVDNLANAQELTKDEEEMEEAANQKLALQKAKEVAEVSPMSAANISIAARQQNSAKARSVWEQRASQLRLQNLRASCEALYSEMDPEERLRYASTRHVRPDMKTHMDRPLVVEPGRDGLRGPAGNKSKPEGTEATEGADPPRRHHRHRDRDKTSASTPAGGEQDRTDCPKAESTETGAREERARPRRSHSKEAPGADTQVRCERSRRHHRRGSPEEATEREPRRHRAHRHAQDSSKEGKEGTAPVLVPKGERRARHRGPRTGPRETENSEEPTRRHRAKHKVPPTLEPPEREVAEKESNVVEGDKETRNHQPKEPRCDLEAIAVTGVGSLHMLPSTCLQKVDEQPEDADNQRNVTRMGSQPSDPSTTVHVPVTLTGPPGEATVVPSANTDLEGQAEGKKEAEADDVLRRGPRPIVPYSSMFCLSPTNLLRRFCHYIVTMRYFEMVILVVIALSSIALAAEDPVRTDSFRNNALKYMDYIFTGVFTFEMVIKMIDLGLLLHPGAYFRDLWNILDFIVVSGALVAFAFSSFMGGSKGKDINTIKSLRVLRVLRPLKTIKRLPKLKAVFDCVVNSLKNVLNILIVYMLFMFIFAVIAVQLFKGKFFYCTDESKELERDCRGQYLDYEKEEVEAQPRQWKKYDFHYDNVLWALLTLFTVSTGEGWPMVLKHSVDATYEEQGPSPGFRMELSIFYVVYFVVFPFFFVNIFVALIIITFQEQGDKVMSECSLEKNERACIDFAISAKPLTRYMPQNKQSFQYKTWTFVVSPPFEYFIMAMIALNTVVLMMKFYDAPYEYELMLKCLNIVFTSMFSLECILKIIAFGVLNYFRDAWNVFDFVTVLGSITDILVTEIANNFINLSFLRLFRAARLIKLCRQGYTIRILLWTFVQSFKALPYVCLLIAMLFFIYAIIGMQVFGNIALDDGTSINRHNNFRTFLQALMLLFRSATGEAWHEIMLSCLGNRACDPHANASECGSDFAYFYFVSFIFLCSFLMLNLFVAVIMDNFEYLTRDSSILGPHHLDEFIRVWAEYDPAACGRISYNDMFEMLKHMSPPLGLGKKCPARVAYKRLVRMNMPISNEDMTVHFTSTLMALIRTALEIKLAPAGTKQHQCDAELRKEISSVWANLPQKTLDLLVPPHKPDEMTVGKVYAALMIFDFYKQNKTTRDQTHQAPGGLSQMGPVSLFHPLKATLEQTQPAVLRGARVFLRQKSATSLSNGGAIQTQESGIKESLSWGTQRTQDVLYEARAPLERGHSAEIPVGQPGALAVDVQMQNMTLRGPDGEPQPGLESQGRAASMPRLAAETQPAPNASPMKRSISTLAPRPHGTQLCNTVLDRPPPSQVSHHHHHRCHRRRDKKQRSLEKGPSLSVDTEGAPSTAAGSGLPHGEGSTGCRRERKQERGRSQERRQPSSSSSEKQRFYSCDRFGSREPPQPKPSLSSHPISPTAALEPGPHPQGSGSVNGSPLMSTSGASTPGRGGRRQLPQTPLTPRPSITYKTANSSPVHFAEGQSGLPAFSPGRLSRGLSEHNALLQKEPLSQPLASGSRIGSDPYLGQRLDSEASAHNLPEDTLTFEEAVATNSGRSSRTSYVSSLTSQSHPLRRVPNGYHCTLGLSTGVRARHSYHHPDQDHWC
T1 sequence (P54290 25-944 partner limits assumed): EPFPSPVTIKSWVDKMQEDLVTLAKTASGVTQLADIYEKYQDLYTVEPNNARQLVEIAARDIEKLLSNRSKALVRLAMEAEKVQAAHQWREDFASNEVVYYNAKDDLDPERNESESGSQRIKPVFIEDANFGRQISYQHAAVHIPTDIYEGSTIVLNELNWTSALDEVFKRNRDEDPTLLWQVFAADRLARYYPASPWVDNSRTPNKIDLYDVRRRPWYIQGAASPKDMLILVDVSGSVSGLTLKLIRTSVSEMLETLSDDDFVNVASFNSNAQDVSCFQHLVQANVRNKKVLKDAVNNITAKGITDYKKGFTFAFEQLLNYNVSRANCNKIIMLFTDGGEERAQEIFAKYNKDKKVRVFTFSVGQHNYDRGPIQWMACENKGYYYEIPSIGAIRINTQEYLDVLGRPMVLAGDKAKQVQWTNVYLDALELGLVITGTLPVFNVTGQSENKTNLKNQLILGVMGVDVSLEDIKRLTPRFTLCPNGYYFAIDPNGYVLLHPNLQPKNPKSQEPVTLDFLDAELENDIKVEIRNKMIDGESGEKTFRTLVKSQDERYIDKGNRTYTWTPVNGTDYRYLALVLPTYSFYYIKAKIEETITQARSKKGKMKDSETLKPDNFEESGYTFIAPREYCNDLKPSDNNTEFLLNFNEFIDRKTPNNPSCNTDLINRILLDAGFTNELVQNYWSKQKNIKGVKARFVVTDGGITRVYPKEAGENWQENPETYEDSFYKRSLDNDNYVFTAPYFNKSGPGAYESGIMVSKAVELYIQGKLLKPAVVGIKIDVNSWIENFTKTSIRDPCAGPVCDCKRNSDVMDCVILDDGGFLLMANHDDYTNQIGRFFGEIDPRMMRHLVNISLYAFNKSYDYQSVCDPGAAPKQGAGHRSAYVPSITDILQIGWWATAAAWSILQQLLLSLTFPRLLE
T1 sequence (P54290 945-1091 partner limits assumed): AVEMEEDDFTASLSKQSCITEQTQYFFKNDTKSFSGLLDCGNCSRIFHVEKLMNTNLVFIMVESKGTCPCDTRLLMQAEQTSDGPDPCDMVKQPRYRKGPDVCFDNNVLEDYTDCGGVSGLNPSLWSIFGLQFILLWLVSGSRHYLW
T1 sequence (P54283 whole entry partner): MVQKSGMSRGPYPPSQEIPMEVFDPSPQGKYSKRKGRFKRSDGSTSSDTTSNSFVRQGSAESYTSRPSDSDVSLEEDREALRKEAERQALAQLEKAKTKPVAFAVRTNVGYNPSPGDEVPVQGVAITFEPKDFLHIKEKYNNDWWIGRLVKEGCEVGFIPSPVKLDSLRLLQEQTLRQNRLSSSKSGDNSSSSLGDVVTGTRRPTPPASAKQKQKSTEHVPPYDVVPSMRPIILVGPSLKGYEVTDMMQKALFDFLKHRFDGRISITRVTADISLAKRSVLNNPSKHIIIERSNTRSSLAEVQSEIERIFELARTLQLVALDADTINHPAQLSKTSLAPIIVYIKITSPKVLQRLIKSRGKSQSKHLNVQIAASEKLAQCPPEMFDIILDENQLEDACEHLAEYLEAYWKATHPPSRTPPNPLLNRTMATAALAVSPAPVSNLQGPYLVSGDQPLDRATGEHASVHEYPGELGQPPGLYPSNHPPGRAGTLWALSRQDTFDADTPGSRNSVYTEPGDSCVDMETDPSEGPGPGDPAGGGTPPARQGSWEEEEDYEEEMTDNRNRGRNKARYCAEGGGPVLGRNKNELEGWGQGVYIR

Consider `COc1ccc(CN2CCN(C(c3ccc(F)cc3)c3ccc(F)cc3)CC2)c(OC)c1OC` [39-36-1 Lomerizine, Lomerizine, reference compound], for which the IC50 is 0.09 µM in test [1] (setting [4]); 0.39 µM in test [1] (setting [5]); 0.09 µM in test [1] (setting [6]); 0.15 µM in test [2] (setting [7]); 0.29 µM in test [2] (setting [8]); 0.15 µM in test [2] (setting [9]). The IC50 in test [3] (setting [10]) was 0.07 µM; in test [3] (setting [11]), 0.46 µM; in test [3] (setting [12]) it was 0.07 µM. The “% Block (100 nM) 0.03 Hz” value in test [1] (α1B (N-type)) came to 24%; in test [2] (α1C (L-type), 0.03 Hz), 26%; in test [3] (α1A (P/Q-type), 0.03 Hz), 25%. In addition, the “% Block (100 nM) 0.2 Hz” value amounted to 54% in test [1] (α1B (N-type)); 44% in test [2] (α1C (L-type), 0.2 Hz); 57% in test [3] (α1A (P/Q-type), 0.2 Hz).

For `COc1cc(C(=O)N2CCN(C(c3ccc(F)cc3)c3ccc(F)cc3)CC2)cc(OC)c1OC` [39-36-2], the IC50 in test [1] (setting [4]) is 0.07 µM; in test [1] (setting [5]), 0.32 µM; in test [1] (setting [6]) it was 0.07 µM; in test [2] (setting [7]), 0.4 µM; in test [2] (setting [8]), 2.1 µM; in test [2] (setting [9]) it was 0.4 µM. The IC50 in test [3] (setting [10]) is 0.11 µM; in test [3] (setting [11]), 0.31 µM; in test [3] (setting [12]), 0.11 µM. The “% Block (100 nM) 0.03 Hz” value in test [1] (α1B (N-type)) is recorded as 29%; in test [2] (α1C (L-type), 0.03 Hz), 11%; in test [3] (α1A (P/Q-type), 0.03 Hz), 35%. For the same compound, the “% Block (100 nM) 0.2 Hz” value in test [1] (α1B (N-type)) is 60%; in test [2] (α1C (L-type), 0.2 Hz), 22%; in test [3] (α1A (P/Q-type), 0.2 Hz), 52%.

Regarding `COc1ccc(/C=C/C(=O)N2CCN(C(=O)CCCCC(c3ccccc3)c3ccccc3)CC2)cc1` [SH-123A], the IC50 in test [1] (setting [4]) was 0.09 µM; in test [1] (setting [5]), 0.47 µM; in test [1] (setting [6]), 0.09 µM; in test [2] (setting [7]), 0.25 µM; in test [2] (setting [8]), 0.62 µM; in test [2] (setting [9]), 0.25 µM. Besides, the IC50 in test [3] (setting [10]) was 0.07 µM; in test [3] (setting [11]), 0.26 µM; in test [3] (setting [12]), 0.07 µM. Moreover, the “% Block (100 nM) 0.03 Hz” value in test [1] (α1B (N-type)) turned out to be 19%; in test [2] (α1C (L-type), 0.03 Hz), 21%; in test [3] (α1A (P/Q-type), 0.03 Hz), 29%. The “% Block (100 nM) 0.2 Hz” value in test [1] (α1B (N-type)) came out at 55%; in test [2] (α1C (L-type), 0.2 Hz), 37%; in test [3] (α1A (P/Q-type), 0.2 Hz), 61%.

Turning to `O=C(/C=C/c1ccc2c(c1)OCO2)N1CCN(C(=O)CCCCC(c2ccccc2)c2ccccc2)CC1` [SH-123B], the IC50 in test [1] (setting [4]) is 0.13 µM; in test [1] (setting [5]) it was 1.27 µM; in test [1] (setting [6]), 0.13 µM; in test [2] (setting [7]) it was 0.74 µM; in test [2] (setting [8]) it was 2.06 µM; in test [2] (setting [9]), 0.74 µM. Moreover, the IC50 in test [3] (setting [10]) is 0.13 µM; in test [3] (setting [11]), 0.55 µM; in test [3] (setting [12]), 0.13 µM. For the same compound, the “% Block (100 nM) 0.03 Hz” value came out at 9% in test [1] (α1B (N-type)); 8% in test [2] (α1C (L-type), 0.03 Hz); 16% in test [3] (α1A (P/Q-type), 0.03 Hz). In addition, the “% Block (100 nM) 0.2 Hz” value in test [1] (α1B (N-type)) amounted to 45%; in test [2] (α1C (L-type), 0.2 Hz), 14%; in test [3] (α1A (P/Q-type), 0.2 Hz), 44%.

Turning to `Nc1ccc(/C=C/C(=O)N2CCN(C(=O)CCCCC(c3ccccc3)c3ccccc3)CC2)cc1` [SH-134], the IC50 in test [1] (setting [4]) is 0.15 µM; in test [1] (setting [5]) it was 0.44 µM; in test [1] (setting [6]), 0.15 µM; in test [2] (setting [7]), 0.83 µM; in test [2] (setting [8]) it was 1.6 µM; in test [2] (setting [9]), 0.83 µM. Also, the IC50 was 0.12 µM in test [3] (setting [10]), 0.45 µM in test [3] (setting [11]) and 0.12 µM in test [3] (setting [12]). Also, the “% Block (100 nM) 0.03 Hz” value in test [1] (α1B (N-type)) amounted to 20%; in test [2] (α1C (L-type), 0.03 Hz), 11%; in test [3] (α1A (P/Q-type), 0.03 Hz), 20%. The “% Block (100 nM) 0.2 Hz” value in test [1] (α1B (N-type)) is recorded as 41%; in test [2] (α1C (L-type), 0.2 Hz), 21%; in test [3] (α1A (P/Q-type), 0.2 Hz), 45%.
